In patent US11746087B1, “C4-carboxylic acid-substituted tryptamine derivatives and methods of using” (priority 2022, dated 2023):
Several values for one entry are separate records, joined by “and”; a condition that tells them apart may be missing. Equal values may be shown once.

How the values were obtained:
[1] = biological target: T1, 5-HT1A receptor (Homo sapiens, UniProt P08908); test: cAMP-Glo assay in +5-HT1A vs −5-HT1A CHO-K1 cells; assay type: cell-based; details: cAMP assay with 4 mM forskolin
T1 construct: host or cells: CHO-K1 (co-expressing Ga15)
T1 sequence (P08908 1-422): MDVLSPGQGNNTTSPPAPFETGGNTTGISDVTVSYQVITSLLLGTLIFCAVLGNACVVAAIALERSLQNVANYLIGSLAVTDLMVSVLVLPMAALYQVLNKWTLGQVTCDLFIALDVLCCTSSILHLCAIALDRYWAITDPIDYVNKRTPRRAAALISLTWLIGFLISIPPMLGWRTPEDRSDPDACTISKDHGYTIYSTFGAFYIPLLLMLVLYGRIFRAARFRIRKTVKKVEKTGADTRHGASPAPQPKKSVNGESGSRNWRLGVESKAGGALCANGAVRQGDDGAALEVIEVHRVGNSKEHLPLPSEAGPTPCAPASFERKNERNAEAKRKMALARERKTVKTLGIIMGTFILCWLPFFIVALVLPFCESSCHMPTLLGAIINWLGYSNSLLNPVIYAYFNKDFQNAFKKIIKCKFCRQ

[2] = Mouse PK study (IV and PO), plasma parent compound and psilocin by LC-MS/MS; assay type: in vivo; details: for detectability of parent compound in plasma, any dose: i.v. and oral, any animals at any dose
Text: Briefly, the procedure was as follows. […] 19, 2022.

[3] = biological target: T2, ADRA2A (Homo sapiens, UniProt P08913); test: EFC-based cAMP secondary messenger assay, agonist mode; assay type: cell-based
T2 sequence (P08913 1-465): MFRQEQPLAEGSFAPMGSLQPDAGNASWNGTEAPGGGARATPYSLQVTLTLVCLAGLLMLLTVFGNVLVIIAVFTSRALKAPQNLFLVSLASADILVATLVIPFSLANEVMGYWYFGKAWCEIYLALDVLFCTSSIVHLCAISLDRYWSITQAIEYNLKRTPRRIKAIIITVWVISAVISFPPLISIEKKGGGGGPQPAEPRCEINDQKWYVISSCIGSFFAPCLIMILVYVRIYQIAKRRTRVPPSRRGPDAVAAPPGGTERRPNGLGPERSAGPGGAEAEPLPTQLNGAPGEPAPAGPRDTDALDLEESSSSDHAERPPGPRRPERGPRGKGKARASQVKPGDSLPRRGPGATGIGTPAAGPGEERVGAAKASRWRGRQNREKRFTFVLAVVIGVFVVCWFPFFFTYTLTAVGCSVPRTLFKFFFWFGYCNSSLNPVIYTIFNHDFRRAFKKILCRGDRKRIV

[4] = biological target: T3, HTR1A (5-HT1A) (Homo sapiens, UniProt P08908); test: as above; assay type: cell-based
T3 sequence (P08908 1-422): T1 sequence (P08908 1-422)

[5] = biological target: T4, OPRD1 (Homo sapiens, UniProt P41143); test: as above; assay type: cell-based
[6] = biological target: T4, OPRD1; test: EFC-based cAMP secondary messenger assay, antagonist mode; assay type: cell-based
[7] = biological target: T5, MAO-A (Homo sapiens, UniProt P21397); test: MAO-A enzyme assay (kynuramine); assay type: biochemical
T5 construct: purchased Sigma
T5 sequence (P21397 1-527): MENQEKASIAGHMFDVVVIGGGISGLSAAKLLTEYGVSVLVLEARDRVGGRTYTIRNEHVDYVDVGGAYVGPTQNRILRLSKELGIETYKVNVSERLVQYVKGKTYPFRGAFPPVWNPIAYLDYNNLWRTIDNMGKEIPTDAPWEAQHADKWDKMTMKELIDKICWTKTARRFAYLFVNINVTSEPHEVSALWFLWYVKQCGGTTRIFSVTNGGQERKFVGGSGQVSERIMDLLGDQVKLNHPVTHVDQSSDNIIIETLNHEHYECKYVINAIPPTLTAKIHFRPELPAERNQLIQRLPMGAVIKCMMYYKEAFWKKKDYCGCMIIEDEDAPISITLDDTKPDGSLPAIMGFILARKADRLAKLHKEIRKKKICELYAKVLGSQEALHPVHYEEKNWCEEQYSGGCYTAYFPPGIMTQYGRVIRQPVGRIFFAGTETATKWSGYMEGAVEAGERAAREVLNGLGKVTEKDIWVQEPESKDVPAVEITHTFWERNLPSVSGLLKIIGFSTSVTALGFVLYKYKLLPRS

[8] = biological target: DAT (Homo sapiens, UniProt Q01959); test: Neurotransmitter transporter uptake assay, blocker; assay type: cell-based
Sequence of DAT (Q01959 whole entry): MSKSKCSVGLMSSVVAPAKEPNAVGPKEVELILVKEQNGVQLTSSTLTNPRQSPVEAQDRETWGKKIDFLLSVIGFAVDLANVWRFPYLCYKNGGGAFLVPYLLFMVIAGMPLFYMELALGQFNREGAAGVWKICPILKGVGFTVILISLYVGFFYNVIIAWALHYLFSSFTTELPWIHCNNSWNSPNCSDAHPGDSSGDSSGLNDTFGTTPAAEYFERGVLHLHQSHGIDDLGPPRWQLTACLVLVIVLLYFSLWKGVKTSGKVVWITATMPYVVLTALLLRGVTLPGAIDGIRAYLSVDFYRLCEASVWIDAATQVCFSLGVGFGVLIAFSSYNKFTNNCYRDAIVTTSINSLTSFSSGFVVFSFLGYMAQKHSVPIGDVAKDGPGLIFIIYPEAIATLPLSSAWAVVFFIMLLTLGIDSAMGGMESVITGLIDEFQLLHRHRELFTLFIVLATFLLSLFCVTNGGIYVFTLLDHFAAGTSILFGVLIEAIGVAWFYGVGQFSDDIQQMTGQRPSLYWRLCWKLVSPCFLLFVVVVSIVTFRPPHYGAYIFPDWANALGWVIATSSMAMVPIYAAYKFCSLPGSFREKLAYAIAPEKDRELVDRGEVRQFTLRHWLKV

T4 sequence (P41143 whole entry): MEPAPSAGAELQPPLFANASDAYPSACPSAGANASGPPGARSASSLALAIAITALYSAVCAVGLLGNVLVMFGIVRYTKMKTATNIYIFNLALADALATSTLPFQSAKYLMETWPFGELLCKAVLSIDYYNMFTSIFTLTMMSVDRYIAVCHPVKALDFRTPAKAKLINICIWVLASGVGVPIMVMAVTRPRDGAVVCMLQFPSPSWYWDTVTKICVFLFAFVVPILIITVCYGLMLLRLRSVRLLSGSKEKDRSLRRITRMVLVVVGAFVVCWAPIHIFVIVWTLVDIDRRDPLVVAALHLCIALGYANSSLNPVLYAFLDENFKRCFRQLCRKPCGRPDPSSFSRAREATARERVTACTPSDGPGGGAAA

SMILES: CN(C)CCc1c[nH]c2cccc(OC(=O)CC3CC3)c12 [C(IV)]
- 5-HT1A receptor modulation, +5-HT1A vs −5-HT1A cultures [1]: significant receptor modulation
- Plasma concentration of psilocin ([2]; 0.275 mg/kg oral C(IV), 4 h, individual animals, BLQ = below 0.2 ng/mL): BLQ
- Plasma concentration of psilocin ([2]; 0.275 mg/kg oral C(IV), 6 h, individual animals, BLQ = below 0.2 ng/mL): BLQ
- Plasma concentration of psilocin ([2]; 0.275 mg/kg oral C(IV), 8 h, individual animals, BLQ = below 0.2 ng/mL): BLQ
- Plasma concentration of psilocin ([2]; 0.275 mg/kg oral C(IV), 24 h, individual animals): No Peak
- Plasma concentration of psilocin ([2]; 0.293 mg/kg i.v. C(IV), 8 h, individual animals, BLQ = below 0.2 ng/mL): No Peak and BLQ (2×)
- Plasma concentration of psilocin ([2]; 0.789 mg/kg oral C(IV), 8 h, individual animals, BLQ = below 0.2 ng/mL): BLQ
- Plasma concentration of psilocin ([2]; 0.789 mg/kg oral C(IV), 24 h, individual animals): No Peak
- Plasma concentration of psilocin ([2]; 2.52 mg/kg oral C(IV), 24 h, individual animals, BLQ = below 0.2 ng/mL): BLQ and No Peak (2×)
- detectability of parent compound in plasma, any dose ([2]; mouse): not detectable in any animals at any dose
- EC50 [3]: > 100 µM
- EC50 [4]: 5.56 µM
- EC50 [5]: 37.8 µM
- IC50 [6]: > 100 µM
- IC50 [7]: 34.4 µM
- IC50 [8]: > 100 µM

SMILES: COc1ccc(C(=O)Oc2cccc3[nH]cc(CCN(C)C)c23)cc1 [C(V)]
- 5-HT1A receptor modulation, +5-HT1A vs −5-HT1A cultures [1]: mild receptor modulation at higher ligand concentrations
- concentration at 0.25 h ([2]; male, C57Bl/6, mouse, plasma, iv, 1 mg/kg, mouse, C(V) 1 mg/kg i.v., 0.25 h, C(V) not stable in plasma, not considered accurate, read-out: Plasma concentration of C(V)): 0.834 ng/mL
- Tmax ([2]; male, C57Bl/6, mouse, plasma, iv, 1 mg/kg, mouse, C(V) 1 mg/kg i.v., estimates not considered accurate (plasma instability), read-out: tmax of C(V)): 5 min
- stability in plasma ([2]; mouse plasma, PK bioanalysis): unstable in plasma
- detectability of parent compound in plasma, i.v. dosing ([2]; mouse, 1 mg/kg i.v.): only detectable in iv. administered animals
- Plasma concentration of C(V) ([2]; mouse, C(V) 1 mg/kg i.v., 0.5 h, 1 mg/kg): BLQ and No Peak
- Plasma concentration of C(V) ([2]; mouse, C(V) 1 mg/kg i.v., 1 h): No Peak
- Plasma concentration of C(V) ([2]; mouse, C(V) 1 mg/kg i.v., 2 h): No Peak
- Plasma concentration of C(V) ([2]; mouse, C(V) 1 mg/kg i.v., 4 h): No Peak
- Plasma concentration of C(V) ([2]; mouse, C(V) 1 mg/kg i.v., 6 h): No Peak
- Plasma concentration of C(V) ([2]; mouse, C(V) 1 mg/kg i.v., 8 h): No Peak
- tmax of C(V) ([2]; mouse, C(V) 1 mg/kg i.v., estimates not considered accurate (plasma instability), 1 mg/kg): 0.0833 h (2×) and 0.0833 ± 0.00 h
- Plasma concentration of psilocin ([2]; mouse, C(V) 1 mg/kg oral, 24 h, 1 mg/kg): No Peak and BLQ
- Plasma concentration of psilocin ([2]; mouse, C(V) 3 mg/kg oral, 24 h, 3 mg/kg): No Peak and BLQ
- Plasma concentration of psilocin ([2]; mouse, C(V) 10 mg/kg oral, 24 h, 10 mg/kg): BLQ and No Peak
- detectability of parent compound in plasma, oral dosing ([2]; mouse, oral, any dose (1, 3, 10 mg/kg)): not detectable
- EC50 [3]: > 100 µM
- EC50 [4]: 7.08 µM
- EC50 [5]: 51.5 µM
- IC50 [6]: > 100 µM
- IC50 [7]: 76 µM
- IC50 [8]: > 100 µM

SMILES: CN(C)CCc1c[nH]c2cccc(OC(=O)c3c(F)c(F)c(F)c(F)c3F)c12 [C(VI)]
- 5-HT1A receptor modulation, +5-HT1A vs −5-HT1A cultures [1]: no receptor modulation at higher ligand concentrations
- Plasma concentration of psilocin ([2]; mouse, C(VI) 1 mg/kg i.v., 8 h): BLQ
- Plasma concentration of psilocin ([2]; mouse, C(VI) 1 mg/kg oral, 24 h, 1 mg/kg): BLQ and No Peak
- Plasma concentration of psilocin ([2]; mouse, C(VI) 3 mg/kg oral, 24 h, 3 mg/kg): BLQ and No Peak
- Plasma concentration of psilocin ([2]; mouse, C(VI) 10 mg/kg oral, 24 h): BLQ
- detectability of parent compound in plasma, any dose ([2]; mouse): not detectable in any animals at any dose
- EC50 [3]: 65.1 µM
- EC50 [4]: 2.21 µM
- EC50 [5]: 59.4 µM
- IC50 [6]: > 100 µM
- IC50 [7]: 20.7 µM
- IC50 [8]: > 100 µM
